Reference: patent publication US8680012B2, “4-phenyl-pyrane-3,5-diones,4-phenyl-thiopyrane-3,6-diones and cyclohexanetriones as novel herbicides” (Syngenta Crop Protection LLC, priority 2006, dated 2014)

Experiments:
Assay type in all cases: in vivo
[1] = test system: Alopecurus myosuroides (ALOMY); assay: Example B pre-emergence herbicidal activity, glasshouse pot test; conditions: 312 h, rate 250 g/ha, evaluated after 13 days, read-out: Pre-emergence activity ALOMY (100=total damage to plant; 0=no damage to plant)
Procedure: (§1) Seeds of a variety of test species were sown in standard soil in pots. After cultivation for one day (pre-emergence) or after 8 days cultivation (post-emergence) under controlled conditions in a glasshouse (at 24/16° C., day/night; 14 hours light; 65% humidity), the plants were sprayed with an aqueous spray solution derived from the formulation of the technical active ingredient in acetone/water (50:50) solution containing 0.5% Tween 20 (polyoxyethelyene sorbitan monolaurate, CAS RN 9005-64-5). The test plants were then grown in a glasshouse under controlled conditions in a glasshouse (at 24/16° C., day/night; 14 hours light; 65% humidity) and watered twice daily. After 13 days for pre and post-emergence, the test was evaluated (100=total damage to plant; 0=no damage to plant).
(§2) Alopecurus myosuroides (ALOMY), Avena fatua (AVEFA), Setaria faberi (SETFA), Echinochloa crus-galli (ECHCG), Solanum nigrum (SOLNI) and Amaranthus retroflexus (AMARE)

[2] = test system: Amaranthus retroflexus (AMARE); assay: as above; conditions: 312 h, rate 250 g/ha, evaluated after 13 days, read-out: Pre-emergence activity AMARE (100=total damage to plant; 0=no damage to plant)
Procedure: as §1, §2

Avena fatua (AVEFA) [3] = assay: as above; conditions: 312 h, rate 250 g/ha, evaluated after 13 days, read-out: Pre-emergence activity AVEFA (100=total damage to plant; 0=no damage to plant)
Procedure: as §1, §2

[4] = test system: Echinochloa crus-galli (ECHCG); assay: as above; conditions: 312 h, rate 250 g/ha, evaluated after 13 days, read-out: Pre-emergence activity ECHCG (100=total damage to plant; 0=no damage to plant)
Procedure: as §1, §2

Setaria faberi (SETFA) [5] = assay: as above; conditions: 312 h, rate 250 g/ha, evaluated after 13 days, read-out: Pre-emergence activity SETFA (100=total damage to plant; 0=no damage to plant)
Procedure: as §1, §2

[6] = test system: Alopecurus myosuroides (ALOMY); assay: Example B post-emergence herbicidal activity, glasshouse pot test; conditions: 312 h, rate 250 g/ha, evaluated after 13 days, read-out: Post-emergence activity ALOMY (100=total damage to plant; 0=no damage to plant)
Procedure: as §1, §2

[7] = test system: Amaranthus retroflexus (AMARE); assay: as above; conditions: 312 h, rate 250 g/ha, evaluated after 13 days, read-out: Post-emergence activity AMARE (100=total damage to plant; 0=no damage to plant)
Procedure: as §1, §2

Avena fatua (AVEFA) [8] = assay: as above; conditions: 312 h, rate 250 g/ha, evaluated after 13 days, read-out: Post-emergence activity AVEFA (100=total damage to plant; 0=no damage to plant)
Procedure: as §1, §2

[9] = test system: Echinochloa crus-galli (ECHCG); assay: as above; conditions: 312 h, rate 250 g/ha, evaluated after 13 days, read-out: Post-emergence activity ECHCG (100=total damage to plant; 0=no damage to plant)
Procedure: as §1, §2

Setaria faberi (SETFA) [10] = assay: as above; conditions: 312 h, rate 250 g/ha, evaluated after 13 days, read-out: Post-emergence activity SETFA (100=total damage to plant; 0=no damage to plant)
Procedure: as §1, §2

| Compound | pest or weed control at 250 g/ha [1] | pest or weed control at 250 g/ha [2] | pest or weed control at 250 g/ha (Avena fatua (AVEFA) [3]) | pest or weed control at 250 g/ha [4] | pest or weed control at 250 g/ha (Setaria faberi (SETFA) [5]) | pest or weed control at 250 g/ha [6] | pest or weed control at 250 g/ha [7] | pest or weed control at 250 g/ha (Avena fatua (AVEFA) [8]) | pest or weed control at 250 g/ha [9] | pest or weed control at 250 g/ha (Setaria faberi (SETFA) [10]) |
| --- | --- | --- | --- | --- | --- | --- | --- | --- | --- | --- |
| CCc1ccc(-c2ccc(Cl)nc2C)cc1C1=C(O)C(C)(C)OC(C)(C)C1=O [Compound A-77] | 10% | 0% | 0% | 0% | 20% | 70% | 0% | 60% | 100% | 90% |
| CCc1ccc(-c2ccc(Cl)cc2)cc1C1=C(O)[C@@]2(CC)CC[C@H](O2)C1=O [Compound A-79] | 40% | 0% | 40% | 80% | 100% | 80% | 0% | 50% | 100% | 100% |
| CCc1ccc(-c2ccc(Br)cc2)cc1C1=C(O)C(C)(C)OC(C)(C)C1=O [Compound A-81] | 80% | 0% | 90% | 100% | 100% | 100% | 0% | 100% | 100% | 100% |
| Cc1ccc(-c2ccc(Br)cc2)cc1C1=C(O)C(C)(C)OC(C)(C)C1=O [Compound A-82] | 80% | 20% | 90% | 100% | 90% | 100% | 0% | 100% | 100% | 100% |
| CCOc1ccc(-c2ccc(Cl)cc2Cl)cc1C1=C(O)C(C)(C)OC(C)(C)C1=O [Compound A-87] | 0% | 0% | 0% | 0% | 0% | 10% | 0% | 0% | 80% | 80% |
| CCOc1ccc(-c2ccc(Cl)cc2F)cc1C1=C(O)C(C)(C)OC(C)(C)C1=O [Compound A-88] | 0% | 0% | 10% | 0% | 0% | 50% | 0% | 10% | 90% | 90% |
| CCOc1ccc(-c2ccc(Cl)cc2)cc1C1=C(O)C(C)(C)OC(C)(C)C1=O [Compound A-89] | 0% | 0% | 0% | 0% | 50% | 80% | 0% | 50% | 90% | 80% |
| COc1ccc(-c2ccc(Cl)cc2)cc1C1=C(O)C(C)(C)OC(C)(C)C1=O [Compound A-90] | 0% | 0% | 0% | 0% | 0% | 40% | 0% | 20% | 90% | 90% |
| Cc1cc(C)c(-c2ccc(Cl)cc2)c(C)c1C1=C(O)C(C)(C)OC(C)(C)C1=O [Compound A-92] | 10% | 0% | 0% | 50% | 60% | 50% | 0% | 0% | 100% | 90% |
| COc1ccc(-c2ccc(Cl)c(F)c2)cc1C1=C(O)C(C)(C)OC(C)(C)C1=O [Compound A-96] | 0% | 0% | 0% | 0% | 0% | 50% | 0% | 30% | 100% | 90% |
| Cc1cc(C)c(-c2ccc(Cl)c(F)c2)c(C)c1C1=C(O)C(C)(C)OC(C)(C)C1=O [Compound A-97] | 0% | 0% | 0% | 50% | 60% | 40% | 0% | 30% | 90% | 70% |
| C#Cc1ccc(-c2ccc(CC)c(C3=C(O)C(C)(C)OC(C)(C)C3=O)c2)cc1 [Compound A-98] | 0% | 50% | 0% | 90% | 90% | 50% | 30% | 70% | 100% | 100% |
| CCc1ccc(-c2ccc(Cl)cc2C#N)cc1C1=C(O)C(C)(C)OC(C)(C)C1=O [Compound A-100] | 20% | 60% | 90% | 80% | 100% | 90% | 0% | 90% | 100% | 100% |
| CCc1ccc(-c2ccc(I)cc2)cc1C1=C(O)C(C)(C)OC(C)(C)C1=O [Compound A-101] | 70% | 0% | 100% | 100% | 100% | 100% | 0% | 100% | 100% | 100% |
| Cc1cc(C)c(-c2ccc(Cl)cc2F)c(C)c1C1=C(O)C(C)(C)OC(C)(C)C1=O [Compound A-102] | 30% | 0% | 0% | 90% | 90% | 20% | 0% | 0% | 70% | 30% |
| COc1ccc(-c2ccc(Cl)cc2F)cc1C1=C(O)C(C)(C)OC(C)(C)C1=O [Compound A-103] | 0% | 0% | 0% | 0% | 0% | 10% | 0% | 0% | 100% | 100% |
